Data on 1 compound can be found in ChEMBL document CHEMBL1137019, “Maintenance of therapeutic concentrations of caspofungin after temporary treatment interruption (48 hours) in a child with invasive aspergillosis” (Antimicrob Agents Chemother, 2007).

Data set [1] is described as follows: Peak plasma concentration in child with invasive aspergillosis administered at 30 mg/day schedule for 5 days followed by 48 hrs temporary treatment interruption measured on first day of resumption of therapy. In kind it is ADME, organism-based. The arrangement: dose 30 mg/day. The following applies: human.
Data set [2] has as its system Homo sapiens. In words: Trough plasma concentration in child with invasive aspergillosis administered at 30 mg/day schedule for 5 days followed by 48 hrs temporary treatment interruption measured on first day of resumption of therapy. The following applies: in vivo. In kind it is ADME, organism-based.
In data set [3] the test system is Aspergillus fumigatus. In words: Antifungal activity against Aspergillus fumigatus. In kind it is functional.
A short description of data set [4]: Peak plasma concentration in child with invasive aspergillosis at 30 mg/day for 5 days measured on last day of therapy. The format is ADME, organism-based. More on the design: dose 30 mg/day. The following applies: human.
Data set [5] can be described thus: Trough plasma concentration in child with invasive aspergillosis at 30 mg/day for 5 days measured on last day of therapy. The format is ADME, organism-based. The following applies: human, read-out: Cmin.
In data set [6] the test system is Homo sapiens. In words: Plasma concentration in human at 5 to 100 mg, iv. In kind it is ADME, organism-based. The following applies: in vivo.

Converted amounts (≈) assume the structure as drawn.

`CC[C@H](C)C[C@H](C)CCCCCCCCC(=O)N[C@H]1C[C@@H](O)[C@@H](NCCN)NC(=O)[C@@H]2[C@@H](O)CCN2C(=O)[C@H]([C@H](O)CCN)NC(=O)[C@H]([C@H](O)[C@@H](O)c2ccc(O)cc2)NC(=O)[C@@H]2C[C@@H](O)CN2C(=O)[C@H]([C@@H](C)O)NC1=O` [CASPOFUNGIN]: the highest concentration (Cmax) in data set [1] is 5.6 µg/mL; in data set [4], 11.5 µg/mL. The compound further had a Cmin in data set [2] of 1.9 µg/mL. For the same compound, in data set [3], it took 0.5 mg/L (≈ 0.457 µM) to inhibit growth (MIC). Also, the concentration at 120 h in data set [5] turned out to be 6.7 µg/mL. In data set [6], the Cp is 1 µg/mL.

By Cmax is commonly meant the maximum level reached in the sampled fluid or tissue. For orientation: MIC means the least concentration at which growth counts as inhibited. A higher MIC goes with a less susceptible organism.
